In patent publication US9856273B2, “ETP derivatives” (priority 2012, dated 2018):
pIC50: −log10 of the molar value. Entries after “also recorded” stand apart in the source; their conditions may differ.

Experiments:
[1] = test system: transferases (HMT, HAT, DNMT); experiment: Screen against a number of transferases; format: biochemical, human
Description: (§1) For histone methyltranferase (HMT), DNA methyltransferase (DNMT) and Histone acetyltransferase (HAT) assays in vitro, human recombinant HMT, DNMT and HAT proteins were mixed with substrates in the reaction buffer (50 mM Tris-HCl (pH 8.5), 5 mM MgCl2, 50 mM NaCl, 1 mM DTT, 1 mM PMSF, 1% DMSO), including histone H3, histone H4, nucleosomes, or core histone. Racemic ETP69, S enantiomer or DMSO as a vehicle control was preincubated in the mixture. Next, for HMTs and DNMT assays, […] of ^3H-SAM was added to the mixture for the reaction initiation and conversion of ^3H-SAM+histone L-lysine to SAH+histone N^6-[methyl-^3H]-L-lysine was monitored with miniatured radioligand-filter binding platform. For p300 HAT assays, the conversion of acetyl-^3H-acetyl coenzyme A to coenzyme A was monitored. The reactions were carried out at 30° C. IC50 values were determined using Excel and GraphPad Prism software.

[2] = Toxicity on intraperitoneal injection or oral administration; conditions: up to 20 mg/kg, intraperitoneal injection (IP) or oral administration
[3] = test system: MDA-MB-231 triple negative breast cancer cells; experiment: Cell viability assay; format: cell-based
[4] = test system: p53; experiment: QPCR of p53 expression in Panc1 cells; format: cell-based; conditions: 100 nM-500 nM
Text: QPCR: Total RNA was isolated from cells using the RNeasy kit (Qiagen). The Tetro cDNA kit (Bioline) and SensiFast Probe kit (Bioline) were used to reverse-transcribe and amplify total RNA according to the manufacturer's protocol. The ProbeFinder software (Roche Applied Science) was used to design the primer sets for SUV39H1, p53 and GAPDH and to select the respective probes from the Universal ProbeLibrary (Roche Applied Science). Probe #13 and the following primers were used for the SUV39H1 assay: 5′ […] (SEQ ID NO: 1) and 5′ […] (SEQ ID NO:2). Probe #21 and the following primers were used for the p53 assay: 5′ […] (SEQ ID NO:3) and 5′ […] (SEQ ID NO:4). Probe #60 and the following primers were used for the GAPDH assay: 5′ agccacatcgctcagacac (SEQ ID NO:5) and 5′ gcccaatacgaccaaatcc (SEQ ID NO:6). All samples were run in triplicates. Amplifications were performed on a Bio-Rad CFX96 Touch Multiple-Color Real-time PCR Detection System. The data were normalized to the GAPDH expression and the relative expression levels were calculated using the 2^−ΔΔCt method.

[5] = biological target: SUV39H1 (Homo sapiens, UniProt O43463); experiment: Histone methyltransferase (HMT) assay in vitro; format: biochemical
Description: as §1

[6] = biological target: G9a (Homo sapiens, UniProt Q96KQ7); experiment: Histone methyltransferase (HMT) assay in vitro; format: biochemical
Description: as §1

[7] = test system: HCC38 triple negative breast cancer cells; experiment: Cell viability assay; format: cell-based
[8] = test system: HepG2 hepatocellular carcinoma cells; experiment: MTS cell viability assay; format: cell-based; conditions: Homo sapiens
[9] = test system: A549 non-small cell lung cancer cells; experiment: MTS cell viability assay, alone and in combination with multi-kinase inhibitor; format: cell-based; conditions: Homo sapiens
Description: Cell Testing Assays with ETP Derivatives in Combination with DNMT Inhibitors and Multi-Kinase Inhibitors (See FIGS. 12A-12D, 13A-13C and 14A-14C): MTS assays were performed for cell viability for combination study with ETP69 plus DNMT inhibitors or mutikinase inhibitor. Human SKOV3 ovarian and A549 non-small cancer cells were seeded in 96-well plates (5000/well), incubated overnight at 37° C. in 5% CO2, and exposed to ETP69 plus azacitidine, decitabine or sorafenib for 48. Dimethyl sulfoxide (DMSO) was used as the vehicle control. Viable cell numbers were determined by tetrazolium conversion to its formazan dye and absorbance was measured at 490 nm using an automated ELISA plate reader. Each experiment was performed in quadruplicate.
IC50 Determinations for Ovarian, Liver, Pancreatic, CML, AML Cancer Cell Lines (See e.g. FIGS. 4, 6A-6C, 21, 22A, 22B, 23, 24A-24C, 25A, 25B and 34): MTS assays were performed for cell viability. […] Viable cell numbers were determined by tetrazolium conversion to its formazan dye and absorbance was measured at 490 nm using an automated ELISA plate reader. […]

[10] = test system: SKOV3 xenografts; format: in vivo, mouse; conditions: SKOV3 xenograft, 2.5 mg/kg IP once daily for 18 days
Description: Human SKOV3 cancer cells (4×10^6) were resuspended in serum-free McCoy's medium and Matrigel (ration of 1:1) and subcutaneously injected into the flank of 5-6 weeks old female NOD/SCID/IL-2rg(ko)(NSG). When palpable tumor sizes reached at approximately 50 mm^3, mice were divided into two groups (vehicle=9, treatment=9). Then, ETP69 was administered with IP injection at 2.5 mg/kg with vehicle (5% DMSO+15% Solutol+80% H2O), once daily for 18 days. Tumor volumes were calculated by the formula 1/2a×b^2, where a is the long diameter, and b is the short diameter. Tumor volumes correlate with tumor weights. The statistical significance of group differences was analyzed using a Student's t-test with the two-tailed distribution. P values less than 0.05 were considered statistically significant.

[11] = test system: MDA-MB-468 triple negative breast cancer cells; experiment: Cell viability assay; format: cell-based
[12] = test system: T315I mutant KCL-22 CML cells; experiment: MTS cell viability assay; format: cell-based; conditions: Homo sapiens
Description: (§2) IC50 Determinations for Ovarian, Liver, Pancreatic, CML, AML Cancer Cell Lines (See e.g. FIGS. 4, 6A-6C, 21, 22A, 22B, 23, 24A-24C, 25A, 25B and 34): MTS assays were performed for cell viability. SKOV3 ovarian cancer, Huh-7 hepatocellular carcinoma, MIA-PaCa2 pancreatic cancer, KCL-22 CML, T315I mutant KCL-22 CML, MOLM-13 AML and MV4-11 AML cells were seeded in 96-well plates (5000 cells/well for solid tumors, 10000 cells/well for blood tumors), incubated overnight at 37° C. in 5% CO2, and exposed to racemic ETP69 or S enantiomer in a dose-dependent manner for 48 h. Dimethyl sulfoxide (DMSO) was used as the vehicle control. Viable cell numbers were determined by tetrazolium conversion to its formazan dye and absorbance was measured at 490 nm using an automated ELISA plate reader. Each experiment was performed in quadruplicate.

[13] = test system: MV4-11 AML cells; experiment: MTS cell viability assay; format: cell-based; conditions: Homo sapiens
Description: as §2

[14] = test system: Huh-7 hepatocellular carcinoma cells; experiment: MTS cell viability assay; format: cell-based; conditions: Homo sapiens
Description: as §2

[15] = test system: KCL-22 CML cells; experiment: MTS cell viability assay; format: cell-based; conditions: Homo sapiens
Description: as §2

SUV39H1, sequence (O43463 whole entry): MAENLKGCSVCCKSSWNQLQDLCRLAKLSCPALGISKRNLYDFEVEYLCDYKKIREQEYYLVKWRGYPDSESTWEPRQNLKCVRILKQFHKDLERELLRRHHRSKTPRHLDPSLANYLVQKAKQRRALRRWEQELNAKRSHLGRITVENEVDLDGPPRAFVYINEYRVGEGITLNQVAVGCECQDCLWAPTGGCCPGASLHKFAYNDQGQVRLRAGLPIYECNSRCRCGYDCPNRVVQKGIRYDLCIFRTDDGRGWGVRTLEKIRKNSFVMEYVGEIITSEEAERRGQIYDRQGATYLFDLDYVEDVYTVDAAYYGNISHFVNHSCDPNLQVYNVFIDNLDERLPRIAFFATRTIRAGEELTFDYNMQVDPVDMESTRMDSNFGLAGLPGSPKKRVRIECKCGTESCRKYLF
G9a, sequence (Q96KQ7 whole entry): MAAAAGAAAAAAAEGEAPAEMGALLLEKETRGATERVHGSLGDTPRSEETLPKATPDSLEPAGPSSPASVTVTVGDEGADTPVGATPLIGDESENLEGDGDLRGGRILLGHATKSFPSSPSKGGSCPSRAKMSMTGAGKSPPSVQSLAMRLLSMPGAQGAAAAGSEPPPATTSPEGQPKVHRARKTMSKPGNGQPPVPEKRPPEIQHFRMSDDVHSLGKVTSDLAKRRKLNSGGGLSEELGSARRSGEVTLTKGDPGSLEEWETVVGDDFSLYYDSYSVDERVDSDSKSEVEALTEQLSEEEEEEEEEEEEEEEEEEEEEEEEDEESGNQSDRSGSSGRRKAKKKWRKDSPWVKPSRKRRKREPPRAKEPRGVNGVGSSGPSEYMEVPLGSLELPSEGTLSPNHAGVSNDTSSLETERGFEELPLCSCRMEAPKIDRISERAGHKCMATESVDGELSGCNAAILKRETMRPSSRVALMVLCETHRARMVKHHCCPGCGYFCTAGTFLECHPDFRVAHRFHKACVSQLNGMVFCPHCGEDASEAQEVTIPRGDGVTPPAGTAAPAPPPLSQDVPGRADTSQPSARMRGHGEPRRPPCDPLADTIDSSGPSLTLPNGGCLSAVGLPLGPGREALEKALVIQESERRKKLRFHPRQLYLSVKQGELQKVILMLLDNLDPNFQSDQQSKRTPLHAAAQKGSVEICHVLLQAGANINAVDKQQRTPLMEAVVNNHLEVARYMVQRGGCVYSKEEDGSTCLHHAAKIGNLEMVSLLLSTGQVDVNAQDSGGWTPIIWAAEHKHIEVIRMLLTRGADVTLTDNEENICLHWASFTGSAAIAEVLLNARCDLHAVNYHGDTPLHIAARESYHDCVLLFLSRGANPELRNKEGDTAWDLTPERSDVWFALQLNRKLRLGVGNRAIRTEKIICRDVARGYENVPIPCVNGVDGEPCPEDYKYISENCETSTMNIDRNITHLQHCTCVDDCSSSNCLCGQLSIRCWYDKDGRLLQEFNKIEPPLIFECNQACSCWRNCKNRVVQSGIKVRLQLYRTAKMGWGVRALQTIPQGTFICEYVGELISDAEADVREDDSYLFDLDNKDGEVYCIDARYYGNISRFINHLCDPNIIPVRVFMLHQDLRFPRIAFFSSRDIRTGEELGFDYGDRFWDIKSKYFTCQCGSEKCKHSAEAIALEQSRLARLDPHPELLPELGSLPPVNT

With `CN1C(=O)[C@@]23C[C@](C)(C#N)[C@H](c4ccc5c(c4)OCO5)N2C(=O)[C@]1(C)SS3` (racemic) [ETP69, Rac-(3S,6S,7S,8aS)-6-(Benzo[d][1,3]dioxol-5-yl)-2,3,7-trimethyl-1,4-dioxohexahydro-6H-3,8a-epidithiopyrrolo[1,2-a]pyrazine-7-carbonitrile] the “potency against several transferases compared with chaetocin” value [1] was “about ten times more potency”, the “selectivity for histone methyltransferases (SUV39H1; G9a) over histone acetylases (p300) and DNA methyl transferases (DNMT1)” value [1] was “selective” and the toxicity [2] was “no significant toxicity”. The viability inhibition [3] was “viability inhibition”, the “up-regulation of p53” value [4] was no less than 3 fold and the “inhibition of HMT SUV39H1” value [5] was “selectively inhibits; also recorded: specific inhibition”. For the same compound, the “inhibition of HMT G9a” value [6] was “selectively inhibits; also recorded: specific inhibition”, the viability inhibition [7] was “viability inhibition” and the pIC50 [8] was 7.86. The pIC50 [9] was 7.00, the toxicity symptoms [10] was “no observable toxicity symptoms” and the tumor volume [10] was “decreased”. The tumor weight [10] was “decreased”, the viability inhibition [11] was “viability inhibition” and the pIC50 [12] was 6.77. The pIC50 [13] was 8.74, the pIC50 [14] was 8.48 and the pIC50 [15] was 6.74.
